Source: publication PMC9977398, “Next-generation membrane-active glycopeptide antibiotics that also inhibit bacterial cell division” (Chemical Science, 2023)

Experiments:
[1] = test system: planktonic cells; assay: Viability of planktonic cells post-treatment in HEPES-glucose; assay type: cell-based
Protocol: To confirm that membrane perturbation contributed to cell death, the bacterial viability was evaluated under conditions similar to the mechanistic studies. […] The number of viable cells was lower upon treatment with VanQAmC10 (8) than when treated with VanQbiph (4) at the same concentration. […] The stronger membrane–perturbation properties of VanQAmC10 (8) therefore contribute to higher activity against both exponentially growing and stationary phase bacteria.

[2] = test system: B. subtilis; assay: Cell wall biosynthesis inhibition assay (bubble assay); assay type: cell-based; conditions: treatment at PEC
Protocol: To further study the mechanisms contributing to the growth retardation, microscopic studies were carried out upon treatment of B. subtilis with compounds. Upon inhibition of cell wall biosynthesis, holes are formed in the peptidoglycan layer where new cell wall material is no longer incorporated. The cytoplasmic membrane extrudes out of these perforations, appearing as bubbles on the cell surface when treated with a 1 : 3 mixture of acetic acid and methanol.[30] […]
and the untreated control were carefully removed from the well, washed with 0.9 % saline, and placed on glass slides. The biofilms were then stained with 10 μL of SYTO9 (60μM) and imaged using a Zeiss 510 Meta confocal laser-scanning microscope. The orthogonal projections of the images were processed with LSM 5 Image examiner. The experiment was performed three times independently and the image provided is representative of these.
Determination of MIC against B. subtilis
Overnight cultures of B. subtilis 168 were grown in 50 mL flasks in 5 mL BMM media. The bacteria in the mid-log phase were then incubated with compounds for 18 h at 37 ̊C in BMM media. The MIC was determined as the lowest concentration at which no visible bacterial OD […]
Determination of Physiologically Effective Concentration7
Overnight cultures of B. subtilis 168 were grown in 50 mL flasks with 10 mL of media. Upon growing to mid-log phase (an OD500 between 0.5 and 1), bacteria was inoculated in 100mL BMM in a 500 ml flask. When the cultures reach an OD500 of 0.35, the bacteria is aliquoted into separate conicals (50 mL) with 5 ml and compounds are added. The O.D. of the solutions are recorded every 30 minutes. The concentration which retards the growth of bacteria was selected as the PEC. The experiments were performed two times independently and the images are representative of results from two independent experiments. The experiment was done together with the compound published in (J. Med. Chem. 64, 2021, 10185) and therefore the graph for vancomycin is the same.
Cell wall biosynthesis inhibition assay or Bubble assay […]

[3] = test system: exponential growth phase MRSA; assay: Time-kill kinetics, exponentially growing MRSA; assay type: cell-based, S. aureus; conditions: for time to complete eradication: exponentially growing MRSA; for minimum bactericidal concentration (MBC): log-phase MRSA
Protocol: To examine the antibacterial properties of the two leads, VanQbiph (4) and VanQAmC10 (8), the kinetics of bactericidal activity against exponentially growing, log-phase cells of MRSA was evaluated (Fig. 1B). The minimum bactericidal concentration (MBC) of VanQbiph (4) and VanQAmC10 (8) was at 2×MIC. […]
Time-kill kinetics assay 4
The bactericidal activity of the compounds was evaluated with the time kill kinetics assay.
MRSA ATCC 33591 cells were cultured in nutrient media at 37°C for 6 h. VanQAmC 10, VanQbiph, and vancomycin was added to the bacterial solution (~1.8×10^5 CFU/mL) with the working concentration of 25 μM. This was incubated at 37°C. At different time intervals (0, 1, 2, 3, 6 and 24 h) 20 μL of aliquots from that solution were serially diluted 10 -fold in 0.9 % saline. Then from the dilutions, 20 μL was plated on yeast -dextrose agar plates and incubated at 37°C for 24 h. The bacterial colonies were counted and results are represented in logarithmic scale, i.e. log10 (CFU/mL). […]

Structure (SMILES) | reduction in viable cells ([1]; 5 μM) | reduction in viable cells ([1]; 10 μM) | cell wall biosynthesis inhibition (bubbles after acetic acid/methanol fixation) [2] | time to complete eradication ([3]; 8×MIC) | minimum bactericidal concentration (MBC) [3] | effect on viable cells ([1]; 40 μM) | time to complete eradication ([3]; 2×MIC)
CCCCCCCCCCNC(=O)C[N+](C)(C)CCCNC(=O)C1NC(=O)C2NC(=O)C(NC(=O)C3NC(=O)C(CC(N)=O)NC(=O)C(NC(=O)C(CC(C)C)NC)C(O)c4ccc(c(Cl)c4)Oc4cc3cc(c4OC3OC(CO)C(O)C(O)C3OC3CC(C)(N)C(O)C(C)O3)Oc3ccc(cc3Cl)C2O)c2ccc(O)c(c2)-c2c(O)cc(O)cc21 (stereo not shown) [VanQAmC10 (8)] | 2 log CFU mL^−1 | 4 log CFU mL^−1 | showed bubbles on the surface | ≤ 6 h | 2 ×MIC | – | –
CNC(CC(C)C)C(=O)NC1C(=O)NC(CC(N)=O)C(=O)NC2C(=O)NC3C(=O)NC(C(=O)NC(C(=O)NCCC[N+](C)(C)Cc4ccc(-c5ccccc5)cc4)c4cc(O)cc(O)c4-c4cc3ccc4O)C(O)c3ccc(c(Cl)c3)Oc3cc2cc(c3OC2OC(CO)C(O)C(O)C2OC2CC(C)(N)C(O)C(C)O2)Oc2ccc(cc2Cl)C1O (stereo not shown) [VanQbiph (4)] | 0.8 log CFU mL^−1 | 2.2 log CFU mL^−1 | showed bubbles on the surface | 24 h | 2 ×MIC | – | –
CN[C@H](CC(C)C)C(=O)N[C@H]1C(=O)N[C@@H](CC(N)=O)C(=O)N[C@H]2C(=O)N[C@H]3C(=O)N[C@H](C(=O)N[C@H](C(=O)O)c4cc(O)cc(O)c4-c4cc3ccc4O)[C@H](O)c3ccc(c(Cl)c3)Oc3cc2cc(c3O[C@@H]2O[C@H](CO)[C@@H](O)[C@H](O)[C@H]2O[C@H]2C[C@](C)(N)[C@H](O)[C@H](C)O2)Oc2ccc(cc2Cl)[C@H]1O [Vancomycin, reference compound] | – | – | showed bubbles on the surface | – | – | did not reduce the viability of bacteria | 24 h
